Like-named read-outs stand apart in the source and are kept apart here.
Key:
[1] = system: IgE-mediated constriction; details: actively sensitized guinea pigs, cited from earlier work
[2] = system: bronchoconstriction; details: guinea pigs passively sensitized with rabbit IgG, intravenously; cited from earlier work
[3] = system: cyclic nucleotide phosphodiesterase; details: cited from earlier work
[4] = system: Arthus reaction; details: cited from earlier work
[5] = system: tuberculin reaction; details: intravenous, cited from earlier work
[6] = system: 2,4-dinitro-1 -fluorobenzene-induced contact sensitivity; details: intravenous, cited from earlier work
[7] = system: IgG1-mediated bronchoconstriction; details: actively sensitized guinea pigs, cited from earlier work
[8] = system: cyclo-oxygenase products; details: whole tissue studies; cited from earlier work
[9] = system: leukotriene D4-induced bronchoconstriction; details: guinea pigs, intravenous doses of 5 and 20 mg/kg; cited from earlier work
[10] = system: passive cutaneous anaphylaxis mediated by IgE; details: rat, cited from earlier work
[11] = system: platelet activating factor-induced bronchoconstriction; details: guinea pigs, intravenous doses of 5 and 20 mg/kg; cited from earlier work
[12] = system: histamine-induced bronchoconstriction; details: cited from earlier work
[13] = system: mast cells; details: cited from earlier work
[14] = system: allergic reactions; details: variety of in vivo models; cited from earlier work
[15] = system: inflammation; details: in vivo; cited from earlier work
[16] = stability of amlexanox in aqueous solution; assay type: physicochemical; details: under certain conditions, solution pH greater than about 8.0
Description: (§1) The molecule contains a free carboxylate group, and the water solubility of amlexanox can be increased by raising the pH of the dissolution solution. However, caution is necessary using this approach as degradation of amlexanox may take place at high pH. […] Thus the formulation of a viscous, mucoadhesive solution of amlexanox which is also stable represented a major challenge.

[17] = system: leukotrienes; details: in vitro; cited from earlier work
[18] = system: leukotriene D4 (LTD4) generation; details: mechanism of action; cited from earlier work
[19] = system: acetylcholine-induced bronchoconstriction; details: text b108; cited from earlier work
[20] = system: airway smooth muscle; details: mechanism of action; cited from earlier work
[21] = water solubility of amlexanox; assay type: physicochemical
Description: as §1

[22] = system: IgE-mediated bronchoconstriction; details: rats, cited from earlier work

CC(C)c1ccc2oc3nc(N)c(C(=O)O)cc3c(=O)c2c1 [Amlexanox, 2-amino-7-(1 methylethyl)-5-oxo-5H[1]benzopyrano[2,3-b]pyridine-3-carboxylic acid]
inhibition of IgE-mediated constriction ([1]; 20 mg/kg, another study): significant inhibition | ED50, inhibition of IgE-mediated constriction ([1]; one study): 14.5 mg/kg | ED50, inhibition of bronchoconstriction [2]: 9 mg/kg | inhibition of cyclic nucleotide phosphodiesterase [3]: Potent inhibitor of cyclic nucleotide phosphodiesterase | inhibition of the Arthus reaction ([4]; intravenous doses of 5 and 20 mg/kg given immediately after antigen challenge): moderate activity | inhibition of the Arthus reaction ([4]; oral doses of 50 and 10 mg/kg given 1 or 3 hours after antigen challenge): moderate activity | inhibition of the tuberculin reaction ([5]; 5 mg/kg): not | inhibition of the tuberculin reaction ([5]; 20 mg/kg): significant inhibition | inhibition of contact sensitivity ([6]; 5 mg/kg): not | inhibition of contact sensitivity ([6]; 20 mg/kg): significant inhibition | ED50, IgG1-mediated bronchoconstriction ([7]; intravenous): 8.2 mg/kg | ED50, IgG1-mediated bronchoconstriction ([7]; oral): 160 mg/kg | generation of cyclo-oxygenase products [8]: Does not inhibit generation of cyclo-oxygenase products in whole | suppression of bronchoconstriction induced by leukotriene D4 [9]: dose-related suppression | ED50, inhibition of passive cutaneous anaphylaxis ([10]; intravenous): 0.032 mg/kg | ED50, inhibition of passive cutaneous anaphylaxis ([10]; oral): 0.73 mg/kg | suppression of bronchoconstriction induced by platelet activating factor [11]: dose-related suppression | bronchoconstriction induced by histamine ([12]; Table 1): Has no effect on bronchoconstriction induced by histamine or | effect on histamine-induced bronchoconstriction ([12]; text b108): slightly suppressed | release of inflammatory mediators from mast cells ([13]; antigen-antibody induced release, ionophore induced release): Potent inhibitor of the release of inflammatory mediators from mast cells | immunologically-stimulated release of histamine from mast cells ([13]; mechanism of action, in vivo and in vitro studies): Inhibition | anti-allergic activity [14]: Potent ant-allergic agent demonstrated in a variety of in vivo models | anti-inflammatory activity [15]: Weak anti-inflammatory activity in vivo | degradation in aqueous solution [16]: degrade slowly | formation of leukotrienes [17]: Inhibits formation of leukotrienes, in vitro | leukotriene D4 (LTD4) generation [18]: Inhibition | effect on acetylcholine-induced bronchoconstriction [19]: not active | contractile response of airway smooth muscle to LTD4 [20]: Antagonism | water solubility [21]: poorly water soluble | suppression of IgE-mediated bronchoconstriction ([22]; intravenous dose of 1 mg/kg): significantly suppressed | suppression of IgE-mediated bronchoconstriction ([22]; oral dose of 10 mg/kg): significantly suppressed

Reference: patent US20020103219A1, “Stable viscous liquid formulations of amlexanox for the prevention and treatment of mucosal diseases and disorders” (priority 2000, published 2002)
